Read-outs that look alike come from different tables or passages of the source.
Legend:
[1] = system: amoeba fed Legionella pneumophila (AfLp); assay type: cell-based; settings: for Active concentration required for complete kill (6 log reduction): Amoeba fed Legionella
[2] = system: Biofilms of P. aeruginosa ATCC 10145; test: Efficacy against biofilm associated bacteria (Calgary biofilm device, viable sessile bacteria); assay type: cell-based; settings: pH 8.5, 37° C.
Procedure: Biofilms of P. aeruginosa ATCC 10145 are grown in Calgary biofilm devices (Innovotech, Alberta, Canada) for 42 hours. Trypticase Soy Broth (TSB) is used in the biofilm devices as the culture medium. After the incubation period, loosely associated cells are removed from the biofilms that develop on the surfaces of the submerged pegs by rinsing with sterile 0.85% NaCl. The biofilms are than treated with DBMAL (inventive biocide), glutaraldehyde (comparative biocide), or DBNPA (comparative biocide). A dilute salts solution is used as the test medium for the efficacy studies. The salts solution contains (in grams per liter of deionized water) CaCl2, 0.2203 g; MgSO4, 0.1847 g; and NaHCO3, 0.2033 g. The final pH of the solution is adjusted to 8.5.
The concentrations of each active tested are 100 ppm, 50 ppm, 25 ppm, 12.5 ppm in the salts solution and the contact times are for 4 hours, 24 hours and 48 hours, respectively. In all cases, the incubation temperature is 37° C. Sterile deionized water is used as a non-biocide treated control. After each contact time, the pegs are washed with sterile 0.85% NaCl and the bacteria are released from the biofilm on the surface of each peg into sterile 0.85% NaCl by sonication (see Ceri et al., Journal of Clinical Microbiology 1999, 37: 1771-1776). The viable bacteria are then enumerated in TSB, using a serial dilution method.

[3] = Stability against hydrolysis (HPLC level remaining in buffered dilute solutions)
[4] = system: Biofilms of P. aeruginosa ATCC 10145; test: Biofilm removal evaluation (crystal violet, OD 580 nm); assay type: cell-based; settings: 25, 50, 100 ppm, 4 hr and 24 hr, 37° C.
Procedure: The Calgary biofilm device is used to prepare biofilms of P. aeruginosa ATCC 10145. TSB is used as the culture medium and biofilms are allowed to develop over a period of 42 hours. […] Concentrations of the actives tested are 25 ppm, 50 ppm, 100 ppm in sterile diluted salts solution as the test medium. The treatment is conducted at 37° C. for 4 hr and 24 hr, respectively. Sterile deionized water is used as an untreated control. After treatment, the pegs are washed with sterile 0.85% NaCl and then the biomass/biofilm on each peg is measured (see Stepanovic et al., Journal of Microbiological Methods, 2000, 40, 175-179). First the biofilm is fixed with 99% methanol and, after air drying, the pegs are stained with 2% (w/v) crystal violet and washed with tap water. The pegs are then air dried and the crystal violet bound to the biofilm is extracted with 33% glacial acetic acid. The optical density (OD) of the extracted solution is measured at 580 nm. The results are depicted in FIG. 2.

[5] = buffer
Free Legionella = assay type: cell-based, Legionella pneumophila

With `NC(=O)C(Br)(Br)C(N)=O` [DBMAL, 2,2-Dibromomalonamide] the “level needed for 6 log kill of AfLp relative to that needed for free cells” value ([1]; corresponding time points (2 and 24 hours)) was “about twice”, the “effectiveness against sessile bacteria (reduction of viable sessile bacteria)” value ([2]; 12.5-100 ppm, 4, 24 and 48 hours, in general) was “more effective than DBNPA” and the “effectiveness against sessile bacteria (reduction of viable sessile bacteria)” value ([2]; 25 ppm active concentration, efficacy increases with contact time) was “very effective”. For the same compound, the “Calculated Percent Reduction of the Active Ingredient” value (“Calculated Percent Reduction” for short) ([3]; pH 6.9, T = 30 C., 48 hours) was 0%, the “Calculated Percent Reduction” value ([3]; pH 6.9, T = 30 C., 72 hours) was 0% and the “Calculated Percent Reduction” value ([3]; pH 8, T = −1 C., 48 hours) was 0%. For the same compound, the “Calculated Percent Reduction” value ([3]; pH 8, T = −1 C., 72 hours) was 0%, the “Calculated Percent Reduction” value ([3]; pH 8, T = −1 C., 96 hours) was 0% and the “Calculated Percent Reduction” value ([3]; pH 9, T = −1 C., 48 hours) was 21%. For the same compound, the “Calculated Percent Reduction” value ([3]; pH 9, T = −1 C., 72 hours) was 12%, the “Calculated Percent Reduction” value ([3]; pH 9, T = −1 C., 96 hours) was 24% and the biofilm removal [4] was “overall better biofilm removal than DBNPA”. For the same compound, the “level remaining (HPLC)” value ([5]; 0 h, pH 6.9) was 3746, the “level remaining (HPLC)” value ([5]; 0 h, pH 8) was 3866 and the “level remaining (HPLC)” value ([5]; 0 h, pH 9) was 4576. For the same compound, the “level remaining (HPLC)” value ([5]; 2 h, pH 6.9) was 4612, the “level remaining (HPLC)” value ([5]; 2 h, pH 8) was 4031 and the “level remaining (HPLC)” value ([5]; 2 h, pH 9) was 4022. For the same compound, the “level remaining (HPLC)” value ([5]; 24 h, pH 6.9) was 3857, the “level remaining (HPLC)” value ([5]; 24 h, pH 8) was 4191 and the “level remaining (HPLC)” value ([5]; 24 h, pH 9) was 3891. For the same compound, the “level remaining (HPLC)” value ([5]; 48 h, pH 6.9) was 3935, the “level remaining (HPLC)” value ([5]; 48 h, pH 8) was 4187 and the “level remaining (HPLC)” value ([5]; 48 h, pH 9) was 3603. The “level remaining (HPLC)” value ([5]; 72 h, pH 6.9) was 3966, the “level remaining (HPLC)” value ([5]; 72 h, pH 8) was 4290 and the “level remaining (HPLC)” value ([5]; 72 h, pH 9) was 4018. For the same compound, the “level remaining (HPLC)” value ([5]; 96 h, pH 6.9) was 4212, the “level remaining (HPLC)” value ([5]; 96 h, pH 8) was 3883 and the “level remaining (HPLC)” value ([5]; 96 h, pH 9) was 3456.
For `N#CC(Br)(Br)C(N)=O` [DBNPA, 2,2-Dibromo-3-nitrilopropionamide], the “level remaining (HPLC)” value ([3]; pH 6.9, T = 30 C., 0 hours) was 3991, the “level remaining (HPLC)” value ([3]; pH 6.9, T = 30 C., 2 hours) was 4155 and the “level remaining (HPLC)” value ([3]; pH 6.9, T = 30 C., 24 hours) was 2557. The “level remaining (HPLC)” value ([3]; pH 6.9, T = 30 C., 48 hours) was 1361, the “level remaining (HPLC)” value ([3]; pH 6.9, T = 30 C., 72 hours) was 918 and the “level remaining (HPLC)” value ([3]; pH 6.9, T = 30 C., 96 hours) was 658. For the same compound, the “level remaining (HPLC)” value ([3]; pH 8, T = −1 C., 0 hours) was 4068, the “level remaining (HPLC)” value ([3]; pH 8, T = −1 C., 2 hours) was 3998 and the “level remaining (HPLC)” value ([3]; pH 8, T = −1 C., 24 hours) was 3506. The “level remaining (HPLC)” value ([3]; pH 8, T = −1 C., 48 hours) was 3578, the “level remaining (HPLC)” value ([3]; pH 8, T = −1 C., 72 hours) was 3149 and the “level remaining (HPLC)” value ([3]; pH 8, T = −1 C., 96 hours) was 3070. The “level remaining (HPLC)” value ([3]; pH 9, T = −1 C., 0 hours) was 3842, the “level remaining (HPLC)” value ([3]; pH 9, T = −1 C., 2 hours) was 2818 and the “level remaining (HPLC)” value ([3]; pH 9, T = −1 C., 24 hours) was 1256. For the same compound, the “level remaining (HPLC)” value ([3]; pH 9, T = −1 C., 48 hours) was 659, the “level remaining (HPLC)” value ([3]; pH 9, T = −1 C., 72 hours) was 363 and the “level remaining (HPLC)” value ([3]; pH 9, T = −1 C., 96 hours) was 239.
In the case of `CCCCCCCCCC[N+](C)(C)CCCCCCCCCC.[Cl-]` [DDAC, didecyl dimethyl ammonium chloride], the “Active concentration required for complete kill (6 log reduction)” value ([1]; 2 hours exposure) is reported as 60 ppm, the “Active concentration required for complete kill (6 log reduction)” value ([1]; 24 hours exposure) is reported as 40 ppm and the “Active concentration required for complete kill (6 log reduction)” value (Free Legionella; 2 hours exposure) is reported as 20 ppm. For the same compound, the “Active concentration required for complete kill (6 log reduction)” value (Free Legionella; 24 hours exposure) was 15 ppm.
With `O=CCCCC=O` [Glutaraldehyde] the “Active concentration required for complete kill (6 log reduction)” value ([1]; 2 hours exposure) was 20 ppm, the “Active concentration required for complete kill (6 log reduction)” value ([1]; 24 hours exposure) was 15 ppm and the “Active concentration required for complete kill (6 log reduction)” value (Free Legionella; 2 hours exposure) was 10 ppm. The “Active concentration required for complete kill (6 log reduction)” value (Free Legionella; 24 hours exposure) was 5 ppm and the “effectiveness against sessile bacteria (reduction of viable sessile bacteria)” value ([2]; 50 ppm active concentration, 48 h treatment) was “low effectiveness”.

Source: patent US20100314319A1, “HALOGENATED AMIDES AS BIOCIDES FOR BIOFILM CONTROL” (priority 2009, published 2010)
